Tests used:
cyclin B1 = test: Immunoblot for cyclin B1; format: cell-based, human; conditions: disulfiram plus copper; data not shown
Method: Cells were lysed and proteins were isolated and quantitated by immunoassay as previously detailed using 2 μg/ml of primary rabbit polyclonal antibodies against human bcl-2, p53, p21^WAF1/CiP1, cyclin A and cyclin B1, and peroxidase-labeled donkey polyclonal anti-rabbit IgG. Cells were placed on ice, washed twice with cold DPBS, scraped into 0.5 ml boiling buffer (10% [vol/vol] glycerol and 2% [wt/vol] sodium dodecyl sulfate [SDS] in 83 mM Tris, pH 6.8) and sheared by four passages through a pipette. Aliquots were removed for protein determination, using the BCA protein assay (Pierce). After 10% β-mercaptoethanol and 0.05% bromophenol blue were added, lysates were boiled for 5 min and stored at −80° C. until immunoblotting was performed. Proteins in defrosted samples were separated by SDS-polyacrylamide gel electrophoresis on 12% polyacrylamide gels (15 μg protein/lane) and electrotransferred to 0.45 μm Hybond ECL nitrocellulose membranes (Amersham Life Sciences) using the wet transblot method in transfer buffer (0.025 M Tris, 0.192 M glycine, 2.6 mM SDS, and 20%[vol/vol] methanol; pH 8.8) at 100 volts for 1 hour. […] Immunoblots were rinsed again as above and detected via an enhanced chemiluminescence method (ECL Western blotting detection system, Amersham Life Science, Buckinghamshire, England). […]

[1] = biological target: T1, transcription factor binding to CRE (ATF2 containing complex II) (Homo sapiens, UniProt P15336); test: EMSA, agents added directly to binding reaction; conditions: for transcription factor binding to CRE: DTT 2.5 mM; for transcription factor binding to CRE, effect with GSH instead of DTT: GSH 3.0 mM as reducing agent
T1 construct: endogenous in cells; host or cells: M1619 human melanoma cells, crude nuclear protein extract
T1 sequence (P15336 1-505): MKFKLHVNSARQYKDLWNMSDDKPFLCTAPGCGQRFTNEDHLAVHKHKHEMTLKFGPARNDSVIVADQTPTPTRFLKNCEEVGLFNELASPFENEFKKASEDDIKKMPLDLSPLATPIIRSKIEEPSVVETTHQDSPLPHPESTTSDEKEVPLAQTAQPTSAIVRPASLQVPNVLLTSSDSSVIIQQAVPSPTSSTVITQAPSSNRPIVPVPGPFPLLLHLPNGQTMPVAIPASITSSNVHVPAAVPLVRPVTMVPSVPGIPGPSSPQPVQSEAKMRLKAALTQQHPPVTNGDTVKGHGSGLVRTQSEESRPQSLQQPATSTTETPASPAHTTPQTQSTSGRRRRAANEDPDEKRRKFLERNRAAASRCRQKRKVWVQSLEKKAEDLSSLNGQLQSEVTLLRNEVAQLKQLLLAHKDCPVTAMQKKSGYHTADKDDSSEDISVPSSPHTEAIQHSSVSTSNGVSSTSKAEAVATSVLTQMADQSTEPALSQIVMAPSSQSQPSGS
Method: This dose was chosen to approximate the steady state plasma and tissue concentrations of drug in human subjects on chronic therapy with this agent. Disulfiram was solubilized in dimethylsulfoxide (DMSO) so that the final concentration of DMSO was less than 0.3-0.5%. Equal volumes of DMSO were added to control experiments. Nuclear protein was harvested and electrophoretic mobility gel shift assays were performed using DNA consensus binding sequence for the cyclic-AMP responsive element (CRE) as outlined below. […] EMSAs were performed using consensus oligonucleotides ([NT] and 3'-[NT]5') for the cyclic-AMP responsive element CRE (ProMega, Madison, Wis.), end-labeled by phosphorylation with [γ^32P]-ATP and T4 polynucleotide kinase. DNA-protein binding reactions were performed with 2 μg of nuclear protein (as determined by the Pierce method) and 30-80,000 cpm of ^32P-end-labelled double-stranded DNA probe in 10 mM Tris-HCl, pH 7.5, 50 mM NaCl, 0.5 mM EDTA, 0.5 mM DTT (except where indicated), 1 mM MgCl2, 50 μg/ml poly dI-dC, and 4% glycerol. All components of the binding reaction with the exception of labeled probe were combined and incubated at room temperature for 10 minutes before addition of labeled probe and incubation for an additional 20 minutes. To determine if inhibition of transcription factor binding to CRE could be attributed to direct transcription factor modification by disulfiram and copper, we studied the effect of adding each agent directly to the binding reaction performed with nuclear protein from untreated […] cells. Therein electrophoretic mobility shift assays (EMSAs) were performed showing that addition of disulfiram plus copper to the binding reaction reduces DNA binding to CRE. […] In lanes 1-5, DTT (2.5 mM) was added to the binding reaction as a reducing agent, whereas in lane 6-9, GSH (3.0 mM) was used.

M1619 melanoma cells = test: DNA cell cycle by flow cytometry; format: cell-based, human; conditions: 24 hours
Method: To study the effect of disulfiram on the DNA cell cycle, cells were grown to confluence in 25 cm^2 plastic flasks and treated for with 10% FBS plus DMSO vehicle, FBS and DMSO vehicle plus 250 μg/ml ceruloplasmin as a source of copper, FBS plus 5 μM disulfiram or FBS plus 5 μM disulfiram and 250 μg/ml ceruloplasmin. After 24 hours cells were trypsinized, washed twice in cold DPBS with 1 mM EDTA and 1% BSA, fixed 30 minute in ice-cold 70% ethanol, and stained by incubation for 30 minutes at 37° C. in a 10 μg/ml solution of propidium iodide in DPBS and 1 mg/ml RNase A. DNA cell cycle measurements were made using a FACStar^PLUS Flow Cytometer (Becton-Dickenson, San Jose, Calif.).
The antiproliferative activity of dithiocarbamate disulfides depends on complexation with copper. PDTC induces apoptosis in normal thymocytes that is mediated by complexation of copper from fetal bovine serum in the medium and subsequent facilitation of copper transport into cells. […] Unsynchronized M1619 melanoma cells were grown in the presence of DMSO vehicle (A), 5 μM disulfiram (B), or 5 μM disulfiram plus 250 μg/ml ceruloplasmin (Cerulo) as a source of copper (C). Twenty-four hours later, cells were harvested and flow cytometric analysis was performed. The proportion of nuclei in each phase of the cell cycle (brackets) was determined with MODFIT DNA analysis software. Disulfiram increases the portion of cells in S phase. The combination of disulfiram and ceruloplasmin further increases the number of cells in S phase, prevents progression into the G2-M cell cycle and induces apoptosis.

[2] = 5 μM disulfiram plus 250 μg/ml ceruloplasmin

CCN(CC)C(=S)SSC(=S)N(CC)CC [Disulfiram, tetraethylthiuram disulfide]
levels of B1 (cyclin B1): remained unchanged | transcription factor binding to CRE ([1]; disulfiram 5 μM alone added to binding reaction): reduced | transcription factor binding to CRE, effect with GSH instead of DTT ([1]; disulfiram 5 μM alone): more pronounced | transcription factor binding to CRE, effect with GSH instead of DTT ([1]; disulfiram 5 μM and 1.6 μM CuSO4): more pronounced | transcription factor binding to CRE ([1]; disulfiram 5 μM and 1.6 μM CuSO4 added to binding reaction): reduced | apoptotic cells (M1619 melanoma cells; [2]): 6% | cells in G2-M (M1619 melanoma cells; [2]): none | cells in S phase (M1619 melanoma cells; [2]): Over two-thirds | cell cycle distribution (M1619 melanoma cells; 5 μM disulfiram): increases the portion in S phase
